Assay results: ChEMBL document CHEMBL4038298, “Ester- and amide-containing multiQACs: Exploring multicationic soft antimicrobial agents” (Bioorg Med Chem Lett, 2017)

Assays:
[1] = system: Staphylococcus aureus; assay: Antibacterial activity against community acquired methicillin-resistant Staphylococcus aureus USA300-0114 incubated for 72 hrs; format: functional; details: USA300-0114, 72 h
[2] = Stability of the compound in pure water by LCMS method; format: physicochemical
[3] = system: Pseudomonas aeruginosa; assay: Antibacterial activity against Pseudomonas aeruginosa PAO1 incubated for 72 hrs; format: functional; details: PAO1, 72 h
[4] = system: Enterococcus faecalis; assay: Antibacterial activity against Enterococcus faecalis OG1RF incubated for 72 hrs; format: functional
[5] = system: Escherichia coli; assay: Antibacterial activity against Escherichia coli MC4100 incubated for 72 hrs; format: functional; details: str. K-12 substr. MC4100, 72 h
[6] = system: Staphylococcus aureus; assay: Antibacterial activity against methicillin-susceptible Staphylococcus aureus SH1000 incubated for 72 hrs; format: functional; details: SH1000, 72 h
[7] = system: Staphylococcus aureus; assay: Antibacterial activity against hospital-acquired methicillin-resistant Staphylococcus aureus ATCC 33592 incubated for 72 hrs; format: functional; details: ATCC 33592, 72 h

| Structure (SMILES) | MIC [1] | Stability [2] | MIC [3] | MIC [4] | MIC [5] | MIC [6] | MIC [7] |
| --- | --- | --- | --- | --- | --- | --- | --- |
| CCCCCCCCCCCCCCOC(=O)C[N+](C)(C)Cc1ccccc1.[Br-] | 2 µM | Stable | 250 µM | 4 µM | 8 µM | 1 µM | 1 µM |
| CCCCCCCCCOC(=O)C[N+](C)(C)CCN1CC[N+](C)(CC(=O)OCCCCCCCCC)CC1.[Br-].[Br-] | 4 µM | Stable | 125 µM | 8 µM | 16 µM | 4 µM | 4 µM |
| CCCCCCOC(=O)C[N+](C)(C)CCC[N+](C)(CCC[N+](C)(C)CC(=O)OCCCCCC)CC(=O)OCCCCCC.[Br-].[Br-].[Br-] | 125 µM | Stable | > 250 µM | 250 µM | > 250 µM | 250 µM | 250 µM |
| CCCCCCCCCCNC(=O)C[N+](C)(C)CCC[N+](C)(CCC[N+](C)(C)CC(=O)NCCCCCCCCCC)CC(=O)NCCCCCCCCCC.[Br-].[Br-].[Br-] | 1 µM | Stable | 63 µM | 2 µM | 2 µM | 1 µM | 2 µM |
| CCCCCCCCCCNC(=O)C[N+](C)(C)CC[N+](C)(C)CC(=O)NCCCCCCCCCC.[Br-].[Br-] | 0.5 µM | Stable | 2 µM | 1 µM | 1 µM | 1 µM | 1 µM |
| CCCCCCCCOC(=O)C[N+](C)(C)CCC[N+](C)(CCC[N+](C)(C)CC(=O)OCCCCCCCC)CC(=O)OCCCCCCCC.[Br-].[Br-].[Br-] | 8 µM | Stable | 32 µM | 16 µM | 16 µM | 8 µM | 8 µM |
| CCCCCCCOC(=O)C[N+](C)(C)CCCN(CCC[N+](C)(C)CC(=O)OCCCCCCC)CCC[N+](C)(C)CC(=O)OCCCCCCC.[Br-].[Br-].[Br-] | 8 µM | Stable | > 250 µM | 32 µM | 63 µM | 16 µM | 32 µM |
| CCCCCCCCCOC(=O)C[N+](C)(C)CCCN(CCC[N+](C)(C)CC(=O)OCCCCCCCCC)CCC[N+](C)(C)CC(=O)OCCCCCCCCC.[Br-].[Br-].[Br-] | 4 µM | Stable | 16 µM | 8 µM | 4 µM | 2 µM | 4 µM |
| CCCCCCCCCOC(=O)C[N+](C)(C)CC[N+](C)(C)CC(=O)OCCCCCCCCC.[Br-].[Br-] | 4 µM | Stable | 32 µM | 16 µM | 16 µM | 2 µM | 8 µM |
| CCCCCCCCCCCCOC(=O)C[N+](C)(C)CCCN(CCC[N+](C)(C)CC(=O)OCCCCCCCCCCCC)CCC[N+](C)(C)CC(=O)OCCCCCCCCCCCC.[Br-].[Br-].[Br-] | 8 µM | Stable | > 250 µM | 8 µM | 8 µM | 4 µM | 8 µM |
| CCCCCCOC(=O)C[N+](C)(C)CCN1CC[N+](C)(CC(=O)OCCCCCC)CC1.[Br-].[Br-] | > 250 µM | Stable | > 250 µM | > 250 µM | > 250 µM | > 250 µM | > 250 µM |
| CCCCCCCOC(=O)C[N+](C)(C)CCC[N+](C)(CCC[N+](C)(C)CC(=O)OCCCCCCC)CC(=O)OCCCCCCC.[Br-].[Br-].[Br-] | 16 µM | Stable | 125 µM | 32 µM | 125 µM | 32 µM | 32 µM |
| CCCCCCOC(=O)C[N+](C)(C)CCCN(CCC[N+](C)(C)CC(=O)OCCCCCC)CCC[N+](C)(C)CC(=O)OCCCCCC.[Br-].[Br-].[Br-] | 63 µM | Stable | > 250 µM | 250 µM | 250 µM | 63 µM | 250 µM |
| CCCCCCCOC(=O)C[N+](C)(C)CC[N+](C)(C)CC(=O)OCCCCCCC.[Br-].[Br-] | 125 µM | Stable | > 250 µM | > 250 µM | > 250 µM | 250 µM | 250 µM |
| CCCCCCCCCOC(=O)C[N+](C)(C)CCC[N+](C)(CCC[N+](C)(C)CC(=O)OCCCCCCCCC)CC(=O)OCCCCCCCCC.[Br-].[Br-].[Br-] | 8 µM | Stable | 32 µM | 16 µM | 8 µM | 4 µM | 8 µM |
| CCCCCCCCCCOC(=O)C[N+](C)(C)CCC[N+](C)(CCC[N+](C)(C)CC(=O)OCCCCCCCCCC)CC(=O)OCCCCCCCCCC.[Br-].[Br-].[Br-] | 4 µM | Stable | 16 µM | 8 µM | 8 µM | 4 µM | 4 µM |
| CCCCCCCCOC(=O)C[N+](C)(C)CCN1CC[N+](C)(CC(=O)OCCCCCCCC)CC1.[Br-].[Br-] | 32 µM | Stable | > 250 µM | 63 µM | 250 µM | > 250 µM | 63 µM |

| Structure (SMILES) | MIC [1] | Stability [2] | MIC [3] | MIC [4] | MIC [5] | MIC [6] | MIC [7] |
| --- | --- | --- | --- | --- | --- | --- | --- |
| CCCCCCCCCCCCCCOC(=O)C[N+](C)(C)CC[N+](C)(C)CC(=O)OCCCCCCCCCCCCCC.[Br-].[Br-] | 16 µM | Stable | > 250 µM | 32 µM | 250 µM | 16 µM | 32 µM |
| CCCCCCCCCCCCCCOC(=O)C[N+](C)(C)CCN1CC[N+](C)(CC(=O)OCCCCCCCCCCCCCC)CC1.[Br-].[Br-] | 250 µM | Stable | > 250 µM | > 250 µM | > 250 µM | > 250 µM | > 250 µM |
| CCCCCCCOC(=O)C[N+](C)(C)CCN1CC[N+](C)(CC(=O)OCCCCCCC)CC1.[Br-].[Br-] | 250 µM | Stable | > 250 µM | > 250 µM | > 250 µM | > 250 µM | > 250 µM |
| CCCCCCCOC(=O)C[N+](C)(C)Cc1ccccc1.[Br-] | > 250 µM | Stable | > 250 µM | > 250 µM | > 250 µM | > 250 µM | > 250 µM |
| CCCCCCCCCCCCOC(=O)C[N+](C)(C)CC[N+](C)(C)CC(=O)OCCCCCCCCCCCC.[Br-].[Br-] | 16 µM | Stable | 125 µM | 32 µM | 63 µM | 16 µM | 32 µM |
| CCCCCCCCOC(=O)C[N+](C)(C)Cc1ccccc1.[Br-] | 250 µM | Stable | > 250 µM | 250 µM | 250 µM | 125 µM | 125 µM |
| CCCCCCCCCOC(=O)C[N+](C)(C)Cc1ccccc1.[Br-] | 32 µM | Stable | > 250 µM | 125 µM | 125 µM | 32 µM | 63 µM |
| CCCCCCCCCCCCOC(=O)C[N+](C)(C)CCN1CC[N+](C)(CC(=O)OCCCCCCCCCCCC)CC1.[Br-].[Br-] | 8 µM | Stable | 32 µM | 32 µM | 16 µM | 8 µM | 8 µM |
| CCCCCCCCCCOC(=O)C[N+](C)(C)Cc1ccccc1.[Br-] | 16 µM | Stable | > 250 µM | 32 µM | 63 µM | 32 µM | 32 µM |
| CCCCCCOC(=O)C[N+](C)(C)Cc1ccccc1.[Br-] | > 250 µM | Stable | > 250 µM | > 250 µM | > 250 µM | > 250 µM | > 250 µM |
| CCCCCCCCOC(=O)C[N+](C)(C)CC[N+](C)(C)CC(=O)OCCCCCCCC.[Br-].[Br-] | 16 µM | Stable | 125 µM | 63 µM | 63 µM | 32 µM | 32 µM |
| CCCCCCCCCCNC(=O)C[N+](C)(C)Cc1ccccc1.[Br-] | 8 µM | Stable | 125 µM | 16 µM | 32 µM | 8 µM | 8 µM |
| CCCCCCCCCCCCOC(=O)C[N+](C)(C)Cc1ccccc1.[Br-] | 2 µM | Stable | 63 µM | 4 µM | 16 µM | 2 µM | 2 µM |
| CCCCCCOC(=O)C[N+](C)(C)CC[N+](C)(C)CC(=O)OCCCCCC.[Br-].[Br-] | 250 µM | Stable | > 250 µM | > 250 µM | > 250 µM | > 250 µM | > 250 µM |
| CCCCCCCCCCOC(=O)C[N+](C)(C)CC[N+](C)(C)CC(=O)OCCCCCCCCCC.[Br-].[Br-] | 8 µM | Stable | 32 µM | 16 µM | 8 µM | 4 µM | 8 µM |
| CCCCCCCCOC(=O)C[N+](C)(C)CCCN(CCC[N+](C)(C)CC(=O)OCCCCCCCC)CCC[N+](C)(C)CC(=O)OCCCCCCCC.[Br-].[Br-].[Br-] | 4 µM | Stable | 63 µM | 8 µM | 8 µM | 2 µM | 4 µM |
| CCCCCCCCCCCCOC(=O)C[N+](C)(C)CCC[N+](C)(CCC[N+](C)(C)CC(=O)OCCCCCCCCCCCC)CC(=O)OCCCCCCCCCCCC.[Br-].[Br-].[Br-] | 8 µM | Stable | 16 µM | 8 µM | 8 µM | 4 µM | 8 µM |
